Reference: patent US9302999B2, “Substituted triazoles as herbicides” (E. I. DU PONT DE NEMOURS AND COMPANY, priority 2012, dated 2016)

Legend:
Assay type in all cases: in vivo
[1] = tested on: soybean (Glycine max); experiment: Test C pre-/postemergence: soybean
Procedure, shortened: (§1)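 Visual injury scored 0–100 (100 = complete control) against untreated controls after 13–15 greenhouse days. Surfactant-containing solvent formulations applied either to soil after sowing (loam/sand) or over 1- to 4-leaf plants, 2–18 cm tall.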

[2] = tested on: kochia (Kochia scoparia); experiment: Test C pre-/postemergence: kochia
Procedure, shortened: as §1

[3] = tested on: ducksalad (Heteranthera limosa); experiment: Test B flooded paddy: ducksalad; settings: Flood; 250 g ai/ha; applied to paddy water at 2-leaf stage; visually evaluated after 13 to 15 days
Procedure, shortened: (§2)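 2-leaf plants; pots flooded 3 cm over soil; compound added to paddy water, depth kept constant. Greenhouse 13–15 d. Visual rating vs controls, 0–100 scale (100 = complete control); dash = no result.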

[4] = tested on: barnyardgrass (Echinochloa crus-galli); experiment: Test A pre-/postemergence: barnyardgrass
Procedure, shortened: (§3)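 Each species received preemergence soil-directed spraying and, at the same time, postemergence treatment of seedlings 2–10 cm tall. Formulation: non-phytotoxic solvent mixture including surfactant. Response assessed visually about ten days on, relative to untreated controls, 0–100 scale.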

[5] = tested on: morningglory (Ipomoea spp.); experiment: Test A pre-/postemergence: morningglory
Procedure, shortened: as §3

[6] = tested on: foxtail, giant (giant foxtail, Setaria faberii); experiment: Test C pre-/postemergence: foxtail, giant
Procedure, shortened: as §1

[7] = tested on: velvetleaf (Abutilon theophrasti); experiment: Test A pre-/postemergence: velvetleaf
Procedure, shortened: as §3

[8] = tested on: corn (Zea mays); experiment: Test C pre-/postemergence: corn
Procedure, shortened: as §1

[9] = tested on: barnyardgrass (Echinochloa crus-galli); experiment: Test B flooded paddy: barnyardgrass; settings: Flood; 250 g ai/ha; applied to paddy water at 2-leaf stage; visually evaluated after 13 to 15 days
Procedure, shortened: as §2

[10] = tested on: large crabgrass (Digitaria sanguinalis); experiment: Test C pre-/postemergence: large crabgrass
Procedure, shortened: as §1

[11] = tested on: chickweed (common chickweed, Stellaria media); experiment: Test C postemergence: chickweed
Procedure, shortened: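 Response values are visual ratings, 0 (no effect) to 100 (complete control), made by comparison with untreated controls 13 to 15 days after postemergence treatment of greenhouse-grown potted plants that were 2 to 18 cm high at spraying.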

[12] = Postemergence, 31 g ai/ha, scale 0 to 100 (0 no effect, 100 complete control)
[13] = Postemergence, 62 g ai/ha, scale 0 to 100 (0 no effect, 100 complete control)
[14] = Postemergence, 125 g ai/ha, scale 0 to 100, 0 no effect, 100 complete control
[15] = Postemergence, 250 g ai/ha, scale 0 to 100
[16] = Preemergence, 31 g ai/ha, scale of 0 to 100, 0 is no effect, 100 is complete control
[17] = Preemergence, 62 g ai/ha, scale of 0 to 100, 0 is no effect, 100 is complete control
[18] = Preemergence, 125 g ai/ha, scale 0 to 100, 0 no effect, 100 complete control
[19] = Preemergence, 250 g ai/ha, scale 0 to 100, 0 no effect, 100 complete control
[20] = Postemergence, 125 g ai/ha, 0 to 100 scale, 0 is no effect, 100 is complete control
[21] = Postemergence, 500 g ai/ha, visual rating on 0 to 100 scale (0 no effect, 100 complete control), approximately ten days
[22] = Preemergence, 125 g ai/ha, 0 to 100 scale where 0 is no effect and 100 is complete control
[23] = Preemergence, 500 g ai/ha, 0 to 100 scale (0 no effect, 100 complete control)
[24] = 31 g ai/ha, scale 0 to 100 (0 no effect, 100 complete control)
[25] = 62 g ai/ha, scale 0 to 100 (0 no effect, 100 complete control)
[26] = Preemergence, 31 g ai/ha, scale 0 (no effect) to 100 (complete control)
[27] = Postemergence, 500 g ai/ha, 0 to 100 scale, 0 is no effect, 100 is complete control

COc1nn(-c2cccc(F)c2)nc1Cc1ccnc(C(F)(F)F)c1 [Compound 139] was tested, and the “Plant response rating, Soybean” value [1, 12] was 40, the “Plant response rating, Soybean” value [1, 13] was 40 and the “Plant response rating, Soybean” value [1, 14] was 45. For the same compound, the “Plant response rating, Soybean” value [1, 15] was 45, the “Plant response rating, Soybean” value [1, 16] was 5 and the “Plant response rating, Soybean” value [1, 17] was 15. For the same compound, the “Plant response rating, Soybean” value [1, 18] was 25, the “Plant response rating, Soybean” value [1, 19] was 25 and the “Plant response rating, Kochia” value [2, 12] was 85. For the same compound, the “Plant response rating, Kochia” value [2, 13] was 85, the “Plant response rating, Kochia” value [2, 14] was 90 and the “Plant response rating, Kochia” value [2, 15] was 90. For the same compound, the “Plant response rating, Kochia” value [2, 16] was 65, the “Plant response rating, Kochia” value [2, 17] was 75 and the “Plant response rating, Kochia” value [2, 18] was 90. For the same compound, the “Plant response rating, Kochia” value [2, 19] was 100, the “Plant response rating, Ducksalad (0 to 100 scale, 0 is no effect, 100 is complete control)” value [3] was 70 and the “Barnyardgrass plant response rating” value [4, 20] was 90. The “Barnyardgrass plant response rating” value [4, 21] was 100, the “Plant response rating, Barnyardgrass” value [4, 22] was 80 and the “Plant response rating, Barnyardgrass” value [4, 23] was 100. For the same compound, the “Plant response rating, Morningglory” value [5, 20] was 80, the “Morningglory plant response rating” value [5, 21] was 100 and the “Plant response rating, Morningglory” value [5, 22] was 50. The “Plant response rating, Morningglory” value [5, 23] was 70, the “Plant response rating, Foxtail, Giant” value [6, 12] was 15 and the “Plant response rating, Foxtail, Giant” value [6, 13] was 30. For the same compound, the “Plant response rating, Foxtail, Giant” value [6, 14] was 40, the “Plant response rating, Foxtail, Giant” value [6, 15] was 75 and the “Plant response rating, Foxtail, Giant” value [6, 16] was 95. For the same compound, the “Plant response rating, Foxtail, Giant” value [6, 17] was 100, the “Plant response rating, Foxtail, Giant” value [6, 18] was 100 and the “Plant response rating, Foxtail, Giant” value [6, 19] was 100. The “Plant response rating, Velvetleaf” value [7, 20] was 90, the “Velvetleaf plant response rating” value [7, 21] was 100 and the “Plant response rating, Velvetleaf” value [7, 22] was 30. For the same compound, the “Plant response rating, Velvetleaf” value [7, 23] was 90, the “Plant response rating, Corn” value [8, 13] was 25 and the “Plant response rating, Corn” value [8, 14] was 55. For the same compound, the “Plant response rating, Corn” value [8, 15] was 60, the “Plant response rating, Corn” value [8, 16] was 0 and the “Plant response rating, Corn” value [8, 17] was 0. The “Plant response rating, Corn” value [8, 18] was 10, the “Plant response rating, Corn” value [8, 19] was 30 and the “Plant response rating, Barnyardgrass (0 to 100 scale, 0 is no effect, 100 is complete control)” value [9] was 65. The “Plant response rating, Crabgrass, Large” value [10, 12] was 40, the “Plant response rating, Crabgrass, Large” value [10, 13] was 45 and the “Plant response rating, Crabgrass, Large” value [10, 14] was 55. For the same compound, the “Plant response rating, Crabgrass, Large” value [10, 15] was 80, the “Plant response rating, Crabgrass, Large” value [10, 16] was 100 and the “Plant response rating, Crabgrass, Large” value [10, 17] was 100. For the same compound, the “Plant response rating, Crabgrass, Large” value [10, 18] was 100, the “Plant response rating, Crabgrass, Large” value [10, 19] was 100 and the “Plant response rating, Chickweed” value [11, 24] was 75. The “Plant response rating, Chickweed” value [11, 25] was 98, the “Plant response rating, Chickweed” value ([11]; 125 g ai/ha, scale 0 to 100, 0 no effect, 100 complete control) was 98 and the “Plant response rating, Chickweed” value ([11]; 250 g ai/ha, scale 0 to 100) was 100.

With CCCc1nn(-c2ccc(C(F)(F)F)cc2)nc1Oc1ccnc(C(F)(F)F)c1 [Compound 170] the “Plant response rating, Soybean” value [1, 12] was 30, the “Plant response rating, Soybean” value [1, 13] was 70 and the “Plant response rating, Soybean” value [1, 14] was 90. The “Plant response rating, Soybean” value [1, 26] was 5, the “Plant response rating, Soybean” value [1, 17] was 5 and the “Plant response rating, Soybean” value [1, 18] was 20. The “Plant response rating, Soybean” value [1, 19] was 45, the “Plant response rating, Kochia” value [2, 12] was 90 and the “Plant response rating, Kochia” value [2, 13] was 90. For the same compound, the “Plant response rating, Kochia” value [2, 14] was 90, the “Plant response rating, Kochia” value ([2]; Postemergence, 250 g ai/ha, scale 0 to 100 (0 no effect, 100 complete control)) was 90 and the “Plant response rating, Ducksalad (0 to 100 scale, 0 is no effect, 100 is complete control)” value [3] was 35. For the same compound, the “Plant response rating, Barnyardgrass” value [4, 20] was 90, the “Barnyardgrass plant response rating” value [4, 27] was 90 and the “Plant response rating, Morningglory” value [5, 20] was 100. For the same compound, the “Morningglory plant response rating” value [5, 27] was 100, the “Plant response rating, Morningglory” value [5, 22] was 70 and the “Plant response rating, Morningglory” value [5, 23] was 90. For the same compound, the “Plant response rating, Foxtail, Giant” value [6, 12] was 55, the “Plant response rating, Foxtail, Giant” value [6, 13] was 80 and the “Plant response rating, Foxtail, Giant” value [6, 14] was 98. The “Plant response rating, Foxtail, Giant” value [6, 15] was 98, the “Plant response rating, Foxtail, Giant” value [6, 26] was 98 and the “Plant response rating, Foxtail, Giant” value [6, 17] was 100. For the same compound, the “Plant response rating, Foxtail, Giant” value [6, 18] was 100, the “Plant response rating, Foxtail, Giant” value [6, 19] was 100 and the “Plant response rating, Velvetleaf” value [7, 20] was 100. The “Velvetleaf plant response rating” value [7, 27] was 100, the “Plant response rating, Velvetleaf” value [7, 22] was 90 and the “Plant response rating, Velvetleaf” value [7, 23] was 100. The “Plant response rating, Corn” value [8, 12] was 15, the “Plant response rating, Corn” value [8, 13] was 25 and the “Plant response rating, Corn” value [8, 14] was 30. The “Plant response rating, Corn” value [8, 15] was 30, the “Plant response rating, Corn” value [8, 26] was 5 and the “Plant response rating, Corn” value [8, 17] was 10. For the same compound, the “Plant response rating, Corn” value [8, 18] was 15, the “Plant response rating, Corn” value [8, 19] was 60 and the “Plant response rating, Barnyardgrass (0 to 100 scale, 0 is no effect, 100 is complete control)” value [9] was 80. For the same compound, the “Plant response rating, Crabgrass, Large” value [10, 12] was 30, the “Plant response rating, Crabgrass, Large” value [10, 13] was 30 and the “Plant response rating, Crabgrass, Large” value [10, 14] was 80. For the same compound, the “Plant response rating, Crabgrass, Large” value [10, 15] was 90, the “Plant response rating, Crabgrass, Large” value [10, 26] was 100 and the “Plant response rating, Crabgrass, Large” value [10, 17] was 100. For the same compound, the “Plant response rating, Crabgrass, Large” value [10, 18] was 100, the “Plant response rating, Crabgrass, Large” value [10, 19] was 100 and the “Plant response rating, Chickweed” value [11, 24] was 75. For the same compound, the “Plant response rating, Chickweed” value [11, 25] was 95 and the “Plant response rating, Chickweed” value ([11]; 250 g ai/ha, scale 0 to 100) was 95.
